Experimental data from patent publication US8445409B2, “Use of 5-benzyloxymethyl-1,2-isoxazoline derivatives as a herbicide” (Moghu Research Center Ltd., priority 2007, dated 2013).

Legend:
[1] = tested on: Wheat; test: Upland pot test, pre-/post-emergence spray, visual rating; format: in vivo, wheat (TRIAZ); conditions: for Visual measurement: Crops, Wheat: 2 weeks after spray, 0-10 scale (10=completely killed)
Source text: (§1) To a rectangular plastic pot having a surface area of 300 cm^2, mixed soils including blend bed soil (Boonong, Horticultural Bed Soil No. 3) and sandy loam soil were filled (mixing ratio, 1:1). Seeds of the eight different types of weeds including gramineous weed such as barnyardgrass, large crabgrass, green foxtail, fall panicum, and broadleaf weed such as common cocklebur, velvetleaf, Indian joint-vetch, and morningglory were sown. To the other pot containing the same soil mixture, seeds of the five different types of crops including corn, soybean, cotton, wheat and rice were sown. Pots were kept in a greenhouse of which temperature was maintained at 25˜30° C. (day) or 15˜25° C. (night), and regularly watered.
(§2) After fourteen days and when the crops and the weeds reached their three-leaf stage, the other set of a crop pot and a weed pot were prepared by the same method as described above. Then, “test substance” was sprayed thereto. In this case, spray treatment to the plants after they have grown for two weeks corresponded to post-emergence treatment while spray treatment to the seeds right after the sowing corresponded to pre-emergence treatment. Spray was carried out by using a track sprayer (R&D Sprayer, USA) equipped with a Teejet 8002 nozzle (Spraying Systems Co., USA). Spray volume was adjusted to 300 L/ha. The spray solution was prepared by dissolving the “test substance” in acetone and adding the same volume of 0.2% (v/v) Tween 20 aqueous solution. Dosage of the test substance was 500, 250, 125, 62.5 or 31.3 g/ha. Two weeks after the spray of the test substance, efficacy and phytotoxic effect to the crops and the weeds were visually measured based on a 0 to 10 scale (0: no efficacy, 10: completely killed).

[2] = tested on: Corn; test: as above; format: in vivo, corn (ZEAMX); conditions: for Visual measurement: Crops, Corn: 2 weeks after spray, 0-10 scale (10=completely killed)
Source text: as §1, §2

[3] = tested on: all types of the turfgrasses; test: Turfgrass safety test, all turfgrasses as a group; format: in vivo
Source text: (§3) Commercially available sod mats of zoysiagrass and bentgrass, Kentucky bluegrass, and perennial ryegrass were purchased. After cutting each turf sod mat in a size of 10 cm×20 cm, it was transplanted to a rectangular plastic pot having a surface area of 300 cm^2 wherein mixed soils including blend of a bed soil (Boonong, Horticultural Nursery Soil No. 3) and sandy loam soil were filled (mixing ratio, 1:1). After transplanting, the grass was mowed (0.5˜1.0 cm in height) once a week, and kept for one month in a greenhouse maintained at 25˜30° C. (day) or 15˜25° C. (night), then the test substance of the present invention was applied at dosage of 4, 2, 1 and 0.5 kg/ha. As a reference, Dithiopyr (32% EC, manufactured by Dongbu Hannong Chemical Company, KOREA) was applied at the recommended rate of 0.48 kg/ha, or twice or quadruple amount thereof, i.e., 0.96 and 1.92 kg/ha, respectively. Spray was made by a track sprayer equipped with a Teejet 8002 nozzle. Spray volume was adjusted to 2,000 L/ha, which was a typical value for an Asian (Korea and Japan) golf course. The spray solution was prepared by dissolving the “test substance” in acetone and adding the same volume of 0.2% (v/v) Tween 20 aqueous solution. Two, four or six weeks after the spray of the test substance, phytotoxicity to the turfgrass were visually evaluated based on 0 to 10 scale (0: no phytotoxic effect, 10: completely killed). The test was conducted in a randomized block design with a three replicates and the results were summarized in the following Table 2 is an average value of the replicates.

[4] = tested on: Fall panicum; test: Upland pot test, pre-/post-emergence spray, visual rating; format: in vivo, fall panicum (PANDI); conditions: 2 weeks after spray, 0-10 scale (10=completely killed)
Source text: as §1, §2

[5] = tested on: Bentgrass; test: Turfgrass safety test (sod mat pots), visual phytotoxicity; format: in vivo; conditions: in vivo
Source text: as §3

[6] = tested on: Perennial ryegrass; test: as above; format: in vivo; conditions: in vivo
Source text: as §3

[7] = tested on: Kentucky bluegrass; test: as above; format: in vivo; conditions: in vivo
Source text: as §3

[8] = tested on: Large crabgrass; test: Upland pot test, pre-/post-emergence spray, visual rating; format: in vivo, large crabgrass (DIGSA); conditions: 2 weeks after spray, 0-10 scale (10=completely killed)
Source text: as §1, §2

[9] = tested on: Cocklebur; test: as above; format: in vivo, common cocklebur (XANST); conditions: 2 weeks after spray, 0-10 scale (10=completely killed)
Source text: as §1, §2

[10] = post-emergence foliar spray at three leaf stage, 31.2 g/ha
[11] = post-emergence foliar spray at three leaf stage, 62.5 g/ha
[12] = post-emergence foliar spray at three leaf stage, 125 g/ha
[13] = post-emergence foliar spray at three leaf stage, 250 g/ha
[14] = post-emergence foliar spray at three leaf stage, 500 g/ha
[15] = pre-emergence soil treatment, 31.2 g/ha
[16] = pre-emergence soil treatment, 62.5 g/ha
[17] = pre-emergence soil treatment, 125 g/ha
[18] = pre-emergence soil treatment, 250 g/ha
[19] = pre-emergence soil treatment, 500 g/ha

Q: `Cc1ccsc1C1=NOC(C)(COCc2c(F)cccc2F)C1` (stereo not shown) [test substance, 5-(2,6-difluorobenzyl)oxymethyl-5-methyl-3-(4-methylthiophen-5-yl)-1,2-isoxazoline] was tested. Which “Visual measurement: Crops, Wheat” value [1, 10] did it give?
A: 0

Q: And the “Visual measurement: Crops, Wheat” value [1, 11]?
A: 0

Q: And the “Visual measurement: Crops, Wheat” value [1, 12]?
A: 0

Q: What about the “Visual measurement: Crops, Wheat” value [1, 13] of the same molecule?
A: 0

Q: What about the “Visual measurement: Crops, Wheat” value [1, 14] of the same molecule?
A: 0

Q: And the “Safety to wheat (in words)” value ([1]; post-emergence treatment)?
A: safe

Q: And the “Visual measurement: Crops, Wheat” value [1, 15]?
A: 0

Q: What about the “Visual measurement: Crops, Wheat” value [1, 16] of the same molecule?
A: 0

Q: What about the “Visual measurement: Crops, Wheat” value [1, 17] of the same molecule?
A: 0

Q: What about the “Visual measurement: Crops, Wheat” value [1, 18] of the same molecule?
A: 0

Q: And the “Visual measurement: Crops, Wheat” value [1, 19]?
A: 0

Q: And the “Visual measurement: Crops, Corn” value [2, 10]?
A: 0

Q: What about the “Visual measurement: Crops, Corn” value [2, 11] of the same molecule?
A: 2

Q: And the “Visual measurement: Crops, Corn” value [2, 12]?
A: 2

Q: What about the “Visual measurement: Crops, Corn” value [2, 13] of the same molecule?
A: 3

Q: And the “Visual measurement: Crops, Corn” value [2, 14]?
A: 8

Q: And the “Safety to corn (in words)” value ([2]; post-emergence treatment)?
A: not safe

Q: What about the “Visual measurement: Crops, Corn” value [2, 15] of the same molecule?
A: 0

Q: What about the “Visual measurement: Crops, Corn” value [2, 16] of the same molecule?
A: 0

Q: And the “Visual measurement: Crops, Corn” value [2, 17]?
A: 0

Q: And the “Visual measurement: Crops, Corn” value [2, 18]?
A: 0

Q: What about the “Visual measurement: Crops, Corn” value [2, 19] of the same molecule?
A: 0

Q: And the “Phytotoxicity to turfgrasses (in words)” value ([3]; 1~2 kg/ha, compared to Dithiopyr at 0.48 kg/ha)?
A: negligible phytotoxicity

Q: And the “Safety to all types of the turfgrasses (in words)” value ([3]; 4 kg/ha)?
A: excellent safety

Q: What about the “Phytotoxic effect to turfgrasses (in words)” value ([3]; dosage the same or less than 0.5 kg/ha) of the same molecule?
A: almost no phytotoxic effect

Q: What about the “Visual measurement: Gramineous weed, Fall panicum” value (“Visual measurement … Fall panicum” below) [4, 10] of the same molecule?
A: 0

Q: And the “Visual measurement … Fall panicum” value [4, 11]?
A: 1

Q: What about the “Visual measurement … Fall panicum” value [4, 12] of the same molecule?
A: 3

Q: What about the “Visual measurement … Fall panicum” value [4, 13] of the same molecule?
A: 6

Q: What about the “Visual measurement … Fall panicum” value [4, 14] of the same molecule?
A: 8

Q: What about the “Visual measurement … Fall panicum” value [4, 15] of the same molecule?
A: 5

Q: And the “Visual measurement … Fall panicum” value [4, 16]?
A: 8

Q: And the “Visual measurement … Fall panicum” value [4, 17]?
A: 9

Q: And the “Visual measurement … Fall panicum” value [4, 18]?
A: 9

Q: And the “Visual measurement … Fall panicum” value [4, 19]?
A: 10

Q: And the “Phytotoxic effect, visual assessment: Bentgrass Week 2” value [5]?
A: 2.3

Q: What about the “Phytotoxic effect, visual assessment: Bentgrass Week 4” value [5] of the same molecule?
A: 3.0

Q: What about the “Phytotoxic effect, visual assessment: Perennial ryegrass Week 2” value [6] of the same molecule?
A: 3.0

Q: And the “Phytotoxic effect, visual assessment: Perennial ryegrass Week 4” value [6]?
A: 2.7

Q: And the “Phytotoxic effect, visual assessment: Perennial ryegrass Week 6” value [6]?
A: 2.0

Q: What about the “Safety to perennial ryegrass (in words)” value [6] of the same molecule?
A: safe

Q: And the “Phytotoxic effect, visual assessment: Kentucky bluegrass Week 6” value ([7]; Kentucky bluegrass, 6 weeks)?
A: 0.0

Q: And the “Phytotoxic effect, visual assessment: Kentucky bluegrass Week 6” value [7]?
A: 1.0

Q: And the “Safety to Kentucky bluegrass (in words)” value [7]?
A: safe

Q: And the “Visual measurement: Gramineous weed, Large crabgrass” value (from here on “Visual measurement … Large crabgrass”) [8, 10]?
A: 1

Q: And the “Visual measurement … Large crabgrass” value [8, 11]?
A: 3

Q: And the “Visual measurement … Large crabgrass” value [8, 12]?
A: 5

Q: What about the “Visual measurement … Large crabgrass” value [8, 13] of the same molecule?
A: 6

Q: And the “Visual measurement … Large crabgrass” value [8, 14]?
A: 9

Q: What about the “Visual measurement … Large crabgrass” value [8, 15] of the same molecule?
A: 1

Q: And the “Visual measurement … Large crabgrass” value [8, 16]?
A: 9

Q: And the “Visual measurement … Large crabgrass” value [8, 17]?
A: 9

Q: And the “Visual measurement … Large crabgrass” value [8, 18]?
A: 10

Q: What about the “Visual measurement … Large crabgrass” value [8, 19] of the same molecule?
A: 10

Q: And the “Visual measurement: Broadleaf weed, Cocklebur” value (from here on “Visual measurement … Cocklebur”) [9, 10]?
A: 0

Q: What about the “Visual measurement … Cocklebur” value [9, 11] of the same molecule?
A: 0

Q: What about the “Visual measurement … Cocklebur” value [9, 12] of the same molecule?
A: 1

Q: And the “Visual measurement … Cocklebur” value [9, 13]?
A: 3

Q: What about the “Visual measurement … Cocklebur” value [9, 14] of the same molecule?
A: 7

Q: What about the “Visual measurement … Cocklebur” value [9, 15] of the same molecule?
A: 0

Q: What about the “Visual measurement … Cocklebur” value [9, 16] of the same molecule?
A: 0

Q: What about the “Visual measurement … Cocklebur” value [9, 17] of the same molecule?
A: 0

Q: What about the “Visual measurement … Cocklebur” value [9, 18] of the same molecule?
A: 0

Q: And the “Visual measurement … Cocklebur” value [9, 19]?
A: 0
